Assay results from ChEMBL document CHEMBL5360601, “Discovery of Potent, Dual-Inhibitors of Diacylglycerol Kinases Alpha and Zeta Guided by Phenotypic Optimization” (ACS Med Chem Lett, 2023).

What was measured:
Raji [1] = assay: IL2 production in PD-L1 positive human Raji cells measured after 24 hrs by Cell titer glo assay
[2] = Metabolic stability in human liver microsomes assessed as parent compound remaining; type: ADME, Microsome
[3] = Metabolic stability in mouse liver microsomes assessed as parent compound remaining; type: ADME, Microsome
Raji [4] = assay: IL2 production in PD-L1 negative human Raji cells measured after 24 hrs by Cell titer glo assay
[5] = target: T1, Diacylglycerol kinase alpha (Homo sapiens, UniProt P23743); assay: Inhibition of DGK alpha (unknown origin)
[6] = target: T1, Diacylglycerol kinase alpha; assay: Inhibition of human DGK alpha using 1, 2-Dilauroyl-sn-glycerol as substrate by ADP-Glo assay
[7] = target: Diacylglycerol kinase iota (Homo sapiens, UniProt O75912); assay: Inhibition of human DGK iota using 1, 2-Dilauroyl-sn-glycerol as substrate by ADP-Glo kinase assay
[8] = target: Diacylglycerol kinase zeta (Homo sapiens, UniProt Q13574); assay: Inhibition of human DGK zeta using 1, 2-Dilauroyl-sn-glycerol as substrate by ADP-Glo kinase assay
[9] = Induction of proliferation of human CD8-positive T cell measured after 24 hrs by Cell titer glo assay
[10] = target: Diacylglycerol kinase gamma (Homo sapiens, UniProt P49619); assay: Inhibition of human DGK gamma using 1, 2-Dilauroyl-sn-glycerol as substrate by ADP-Glo assay
[11] = Inhibition of DGK in human whole blood cell assessed as increase in pERK level incubated for 1 hr followed by anti-human CD3 stimulation and measure after 15 mins by AlphaLISA assay; type: tissue-based
[12] = target: Diacylglycerol kinase beta (Homo sapiens, UniProt Q9Y6T7); assay: Inhibition of human DGK beta using 1, 2-Dilauroyl-sn-glycerol as substrate by ADP-Glo assay
[13] = Inhibition of DGK in human whole blood cell assessed as increase in IFNgamma level incubated for 1 hr followed by anti-human CD3/ antiCD28 mAB stimulation and measure after 24 hrs by AlphaLISA assay; type: tissue-based
[14] = target: T2, Diacylglycerol kinase kappa (Homo sapiens, UniProt Q5KSL6); assay: Inhibition of human DGK kappa using 1, 2-Dilauroyl-sn-glycerol as substrate by ADP-Glo kinase assay
T2 sequence (Q5KSL6 whole entry): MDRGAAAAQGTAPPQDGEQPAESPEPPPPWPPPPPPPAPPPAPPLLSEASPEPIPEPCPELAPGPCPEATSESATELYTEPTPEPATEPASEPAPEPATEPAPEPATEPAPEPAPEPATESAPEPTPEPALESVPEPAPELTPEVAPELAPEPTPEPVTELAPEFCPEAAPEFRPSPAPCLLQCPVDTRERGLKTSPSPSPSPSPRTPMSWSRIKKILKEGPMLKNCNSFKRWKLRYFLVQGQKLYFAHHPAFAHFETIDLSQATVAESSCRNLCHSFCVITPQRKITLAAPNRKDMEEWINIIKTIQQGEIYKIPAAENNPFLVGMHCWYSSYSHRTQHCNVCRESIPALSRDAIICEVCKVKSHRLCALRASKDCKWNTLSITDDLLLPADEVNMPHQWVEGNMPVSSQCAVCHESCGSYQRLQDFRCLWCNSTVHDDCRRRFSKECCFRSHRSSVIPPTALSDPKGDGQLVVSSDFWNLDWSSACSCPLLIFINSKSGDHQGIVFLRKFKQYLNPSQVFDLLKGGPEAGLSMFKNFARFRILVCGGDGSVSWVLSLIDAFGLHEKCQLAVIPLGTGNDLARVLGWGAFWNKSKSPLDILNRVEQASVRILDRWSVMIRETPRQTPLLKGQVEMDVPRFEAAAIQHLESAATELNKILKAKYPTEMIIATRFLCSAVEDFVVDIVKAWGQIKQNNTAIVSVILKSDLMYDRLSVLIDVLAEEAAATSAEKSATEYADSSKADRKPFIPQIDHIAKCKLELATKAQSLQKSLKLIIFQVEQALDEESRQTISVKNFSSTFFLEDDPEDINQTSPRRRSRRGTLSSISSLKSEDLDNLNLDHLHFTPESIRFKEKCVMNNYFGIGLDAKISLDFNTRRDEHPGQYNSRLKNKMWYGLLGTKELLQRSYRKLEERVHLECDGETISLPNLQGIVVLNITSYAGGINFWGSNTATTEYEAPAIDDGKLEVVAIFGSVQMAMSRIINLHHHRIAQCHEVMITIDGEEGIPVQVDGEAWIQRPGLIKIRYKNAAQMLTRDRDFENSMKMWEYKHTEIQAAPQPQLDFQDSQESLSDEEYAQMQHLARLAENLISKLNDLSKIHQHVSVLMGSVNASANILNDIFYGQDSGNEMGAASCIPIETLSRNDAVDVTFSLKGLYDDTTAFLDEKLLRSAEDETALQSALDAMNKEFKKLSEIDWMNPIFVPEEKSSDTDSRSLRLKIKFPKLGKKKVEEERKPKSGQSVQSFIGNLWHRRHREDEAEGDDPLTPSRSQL

T1 sequence (P23743 whole entry): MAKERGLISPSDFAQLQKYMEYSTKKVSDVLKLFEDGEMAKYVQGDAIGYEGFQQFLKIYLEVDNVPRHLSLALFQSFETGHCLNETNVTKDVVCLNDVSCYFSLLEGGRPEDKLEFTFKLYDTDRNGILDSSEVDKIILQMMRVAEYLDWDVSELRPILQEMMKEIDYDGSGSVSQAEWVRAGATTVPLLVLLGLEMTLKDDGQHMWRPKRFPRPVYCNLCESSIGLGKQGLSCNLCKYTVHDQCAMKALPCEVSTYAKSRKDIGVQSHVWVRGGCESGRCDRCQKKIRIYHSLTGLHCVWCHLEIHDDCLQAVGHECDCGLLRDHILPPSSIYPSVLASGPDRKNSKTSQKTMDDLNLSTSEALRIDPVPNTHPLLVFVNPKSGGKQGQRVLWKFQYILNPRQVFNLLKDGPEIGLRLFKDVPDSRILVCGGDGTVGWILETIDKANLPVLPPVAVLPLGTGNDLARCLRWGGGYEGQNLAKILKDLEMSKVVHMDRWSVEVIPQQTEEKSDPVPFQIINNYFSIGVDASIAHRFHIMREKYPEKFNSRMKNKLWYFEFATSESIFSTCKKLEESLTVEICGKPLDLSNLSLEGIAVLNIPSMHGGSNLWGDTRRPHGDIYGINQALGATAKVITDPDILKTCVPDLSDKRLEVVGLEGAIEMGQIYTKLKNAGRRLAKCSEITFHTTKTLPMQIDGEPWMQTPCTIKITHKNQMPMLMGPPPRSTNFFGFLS
Diacylglycerol kinase zeta, sequence (Q13574 whole entry): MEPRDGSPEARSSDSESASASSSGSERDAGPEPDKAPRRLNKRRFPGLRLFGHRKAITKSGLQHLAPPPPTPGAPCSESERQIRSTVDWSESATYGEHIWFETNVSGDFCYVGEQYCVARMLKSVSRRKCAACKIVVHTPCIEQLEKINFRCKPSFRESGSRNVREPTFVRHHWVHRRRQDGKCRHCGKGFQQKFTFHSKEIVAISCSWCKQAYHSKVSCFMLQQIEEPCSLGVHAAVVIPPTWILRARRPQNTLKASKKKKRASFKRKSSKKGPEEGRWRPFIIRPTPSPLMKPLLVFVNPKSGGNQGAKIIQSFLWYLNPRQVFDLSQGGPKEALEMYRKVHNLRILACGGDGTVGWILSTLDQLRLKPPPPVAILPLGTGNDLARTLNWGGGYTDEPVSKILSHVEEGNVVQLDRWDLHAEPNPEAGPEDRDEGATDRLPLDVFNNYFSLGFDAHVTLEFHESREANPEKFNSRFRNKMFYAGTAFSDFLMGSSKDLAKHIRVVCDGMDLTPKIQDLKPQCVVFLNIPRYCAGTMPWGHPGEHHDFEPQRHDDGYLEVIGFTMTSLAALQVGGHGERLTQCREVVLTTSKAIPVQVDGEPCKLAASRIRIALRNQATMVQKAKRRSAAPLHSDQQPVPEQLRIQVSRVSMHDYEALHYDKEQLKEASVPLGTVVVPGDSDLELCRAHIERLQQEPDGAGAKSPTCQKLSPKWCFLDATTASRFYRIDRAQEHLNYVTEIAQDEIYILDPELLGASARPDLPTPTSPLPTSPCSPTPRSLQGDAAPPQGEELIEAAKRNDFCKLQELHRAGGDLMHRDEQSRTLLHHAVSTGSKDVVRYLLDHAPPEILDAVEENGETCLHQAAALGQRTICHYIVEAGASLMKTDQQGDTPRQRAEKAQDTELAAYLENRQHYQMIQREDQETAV
Diacylglycerol kinase iota, sequence (O75912 whole entry): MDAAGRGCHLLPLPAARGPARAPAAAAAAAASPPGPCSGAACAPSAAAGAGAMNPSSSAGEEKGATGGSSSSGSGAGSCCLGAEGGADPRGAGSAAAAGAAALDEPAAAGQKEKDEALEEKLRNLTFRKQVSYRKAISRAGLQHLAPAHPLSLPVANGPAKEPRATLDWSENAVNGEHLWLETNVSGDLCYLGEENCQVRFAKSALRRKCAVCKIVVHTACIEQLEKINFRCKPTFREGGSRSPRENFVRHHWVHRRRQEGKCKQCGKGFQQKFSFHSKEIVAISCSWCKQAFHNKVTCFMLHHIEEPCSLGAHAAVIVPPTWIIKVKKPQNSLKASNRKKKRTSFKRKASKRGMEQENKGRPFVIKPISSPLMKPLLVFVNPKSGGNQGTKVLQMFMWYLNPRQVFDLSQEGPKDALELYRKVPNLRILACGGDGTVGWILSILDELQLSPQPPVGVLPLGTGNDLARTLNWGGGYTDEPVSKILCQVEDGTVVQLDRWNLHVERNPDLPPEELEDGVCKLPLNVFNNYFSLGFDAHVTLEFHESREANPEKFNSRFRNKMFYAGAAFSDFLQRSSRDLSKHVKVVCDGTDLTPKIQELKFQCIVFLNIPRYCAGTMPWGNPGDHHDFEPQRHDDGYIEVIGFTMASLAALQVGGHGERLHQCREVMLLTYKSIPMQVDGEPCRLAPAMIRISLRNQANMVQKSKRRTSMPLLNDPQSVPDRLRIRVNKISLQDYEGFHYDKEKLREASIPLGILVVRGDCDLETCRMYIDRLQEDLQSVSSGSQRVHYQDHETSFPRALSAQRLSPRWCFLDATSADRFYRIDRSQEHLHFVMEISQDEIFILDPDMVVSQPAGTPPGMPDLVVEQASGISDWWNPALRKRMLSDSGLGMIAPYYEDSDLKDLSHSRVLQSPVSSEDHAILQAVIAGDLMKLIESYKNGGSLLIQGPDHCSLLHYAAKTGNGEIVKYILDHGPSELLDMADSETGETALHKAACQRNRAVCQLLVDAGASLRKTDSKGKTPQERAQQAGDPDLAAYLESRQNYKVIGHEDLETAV
Diacylglycerol kinase gamma, sequence (P49619 whole entry): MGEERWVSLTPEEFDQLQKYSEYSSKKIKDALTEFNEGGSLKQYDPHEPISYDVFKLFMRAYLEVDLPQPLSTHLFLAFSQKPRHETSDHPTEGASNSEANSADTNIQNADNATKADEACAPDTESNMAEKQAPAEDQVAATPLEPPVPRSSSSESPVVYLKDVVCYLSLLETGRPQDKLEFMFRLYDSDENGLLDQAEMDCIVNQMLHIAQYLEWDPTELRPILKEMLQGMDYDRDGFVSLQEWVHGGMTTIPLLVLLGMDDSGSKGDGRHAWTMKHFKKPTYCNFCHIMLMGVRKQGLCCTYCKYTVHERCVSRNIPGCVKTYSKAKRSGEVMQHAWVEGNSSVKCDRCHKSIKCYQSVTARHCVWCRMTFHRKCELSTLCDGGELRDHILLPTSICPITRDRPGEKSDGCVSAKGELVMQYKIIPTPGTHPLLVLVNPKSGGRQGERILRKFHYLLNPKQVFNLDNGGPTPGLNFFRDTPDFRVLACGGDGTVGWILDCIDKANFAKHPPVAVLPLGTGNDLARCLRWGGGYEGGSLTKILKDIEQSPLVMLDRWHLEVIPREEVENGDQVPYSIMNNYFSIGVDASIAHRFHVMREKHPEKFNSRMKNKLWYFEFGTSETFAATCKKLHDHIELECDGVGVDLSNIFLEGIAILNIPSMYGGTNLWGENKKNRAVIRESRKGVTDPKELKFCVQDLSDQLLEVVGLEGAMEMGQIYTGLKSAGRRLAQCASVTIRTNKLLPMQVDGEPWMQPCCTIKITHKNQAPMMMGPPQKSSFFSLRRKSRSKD

Row | SMILES | EC50 (Raji [1]) [µM] | Stability [2] [%] | Stability [3] [%] | EC50 (Raji [4]) [µM] | further results
1 | Cn1c(=O)cc(N2CCN(C(c3ccccc3)c3ccccc3)CC2)c2ccccc21 | > 5 | 93 | 63 | > 16 | –
2 | CCn1c(=O)c([N+](=O)[O-])c(N2CCN(C(c3ccc(F)cc3)c3ccc(F)cc3)CC2)c2ccccc21 | > 100 | – | – | > 100 | –
3 | Cc1nc2sccn2c(=O)c1CCN1CCC(=C(c2ccccc2)c2ccc(F)cc2)CC1 | – | – | – | – | IC50 [5]: 25.4 µM
4 | Cn1c(=O)c([N+](=O)[O-])c(N2CCN(C(c3ccc(F)cc3)c3ccc(F)cc3)CC2)c2cc(C#N)ccc21 | 0.13 | 97 | 93 | 0.12 | IC50 [6]: 0.034 µM; IC50 [7]: 6.2 µM; IC50 [8]: 10 µM
5 | O=C1/C(=C/C=C/c2ccco2)SC(=S)N1NS(=O)(=O)c1ccccc1 | – | – | – | – | IC50 [6]: 0.6 µM
6 | Cn1c(=O)c([N+](=O)[O-])c(N2CCN(CCc3ccccc3)CC2)c2ccccc21 | > 100 | 28 | 6 | > 100 | –
7 | COc1ccc2c(c1)c(N1CCN(C(c3ccc(F)cc3)c3ccc(F)cc3)CC1)c([N+](=O)[O-])c(=O)n2C | 0.63 | 79 | 8 | 1.2 | –
8 | Cn1c(=O)c(C(=O)C(F)(F)F)c(N2CCN(C(c3ccccc3)c3ccccc3)CC2)c2ccccc21 | 7.1 | 75 | 63 | 5.8 | –
9 | CC(=O)c1c(N2CCN(C(c3ccccc3)c3ccccc3)CC2)c2ccccc2n(C)c1=O | 8.5 | – | – | 13 | –
10 | CC(c1ccccc1)N1CCN(c2c([N+](=O)[O-])c(=O)n(C)c3ccccc23)CC1 (stereo not drawn) | 6.39 | 25 | 4 | 9.28 | –
11 | Cn1c(=O)c(C(=O)O)c(N2CCN(C(c3ccccc3)c3ccccc3)CC2)c2ccccc21 | > 100 | – | – | > 100 | –
12 | Cn1c(=O)c([N+](=O)[O-])c(N2CCN(C(c3ccc(F)cc3)c3ccc(F)cc3)CC2)c2cc(F)ccc21 | 0.34 | 89 | 77 | 0.49 | –
13 | Cn1c(=O)c([N+](=O)[O-])c(N2CCN(C(c3ccc(F)cc3)c3ccc(F)cc3)CC2)c2ccccc21 | 1.5 | 86 | 84 | 3.7 | –
14 | Cn1c(=O)c([N+](=O)[O-])c(N2CCN(C(c3ccc(F)cc3)c3ccc(F)cc3)CC2)c2cccnc21 | 7.7 | – | – | 13 | –
15 | Cc1nc2sccn2c(=O)c1CCN1CCC(=C(c2ccc(F)cc2)c2ccc(F)cc2)CC1 [RITANSERIN] | – | – | – | – | EC50 [9]: > 10 µM; IC50 [10]: > 10 µM; EC50 [11]: > 20 µM; IC50 [6]: > 5 µM; IC50 [5]: 15.1 µM; IC50 [7]: > 10 µM; IC50 [8]: > 10 µM; IC50 [12]: > 10 µM
16 | C#CCCC1(CCCN2CCN(c3c([N+](=O)[O-])c(=O)n(C)c4ccc(Br)nc34)CC2)N=N1 | 0.42 | 10 | < 1 | 0.37 | –
17 | CCCN1CCN(c2c([N+](=O)[O-])c(=O)n(C)c3ccccc23)CC1 | > 100 | – | – | > 100 | –
18 | Cn1c(=O)c([N+](=O)[O-])c(N2CCN(C(c3ccccc3)c3ccccc3)CC2)c2ccccc21 | 3.2 | 93 | 82 | 2.4 | IC50 [10]: 1.9 µM; EC50 [13]: > 20 µM; EC50 [11]: > 20 µM; IC50 [6]: 0.015 µM; IC50 [7]: > 10 µM; IC50 [14]: > 10 µM; IC50 [8]: > 10 µM; IC50 [12]: 2.5 µM
19 | CCOC(=O)c1c(N2CCN(C(c3ccccc3)c3ccccc3)CC2)c2ccccc2n(C)c1=O | 4.1 | 49 | 52 | 20 | –
20 | CN(C)c1ccc2c(c1)c(N1CCN(C(c3ccc(F)cc3)c3ccc(F)cc3)CC1)c([N+](=O)[O-])c(=O)n2C | 0.67 | 69 | 5 | 0.76 | –
21 | COc1ccc2c(n1)c(N1CCN(C(c3ccc(F)cc3)c3ccc(F)cc3)CC1)c(C#N)c(=O)n2C | 0.39 | 100 | 43 | 0.4 | –
22 | Cn1c(=O)c(C#N)c(N2CCN(C(c3ccccc3)c3ccccc3)CC2)c2ccccc21 | 1.37 | – | – | 1.24 | –
23 | Cn1c(=O)c([N+](=O)[O-])c(N2CCN(C(c3ccc(F)cc3)c3ccc(F)cc3)CC2)c2ccc(F)cc21 | 2.6 | – | – | 1.8 | –
24 | O=c1c2ccccc2[nH]c(=S)n1CCN1CCC(=C(c2ccc(F)cc2)c2ccc(F)cc2)CC1 [DIACYLGLYCEROL KINASE INHIBITOR II] | – | – | – | – | EC50 [9]: > 10 µM; IC50 [10]: 3.4 µM; EC50 [13]: > 10 µM; IC50 [6]: 4.3 µM; IC50 [7]: > 10 µM; IC50 [8]: > 10 µM; IC50 [12]: > 10 µM
25 | Cn1c(=O)c(C#N)c(N2CCN(C(c3ccc(F)cc3)c3ccc(F)cc3)CC2)c2nc(C#N)ccc21 | 0.19 | 92 | 80 | 0.067 | –
26 | O=c1[nH]c2ccccc2c(N2CCN(C(c3ccc(F)cc3)c3ccc(F)cc3)CC2)c1[N+](=O)[O-] | > 33 | – | – | > 100 | –
27 | Cn1c(=O)c([N+](=O)[O-])c(N2CCN(Cc3ccccc3)CC2)c2cc(F)ccc21 | 1.5 | 43 | 8 | 2.5 | –
28 | Cn1c(=O)c([N+](=O)[O-])c(N2CCN(C(c3ccc(F)cc3)c3ccc(F)cc3)CC2)c2ncccc21 | 0.29 | 92 | 88 | 0.31 | IC50 [6]: 0.053 µM; IC50 [7]: 1 µM; IC50 [8]: 2.7 µM
29 | Cn1c(=O)c(C#N)c(N2CCN(C(c3ccc(F)cc3)c3ccc(F)cc3)CC2)c2cc(F)ccc21 | 0.61 | 84 | – | 1.1 | –
30 | Cn1c(=O)c([N+](=O)[O-])c(N2CCN(C(c3ccc(F)cc3)c3ccc(F)cc3)CC2)c2cnccc21 | 0.56 | 100 | 63 | 0.84 | –
